Test results as given in patent publication US20170137753A1, “DELIVERY SYSTEMS COMPRISING MALODOR REDUCTION COMPOSITIONS” (The Procter & Gamble Company, priority 2014, published 2017).

Test: Blocker Index (BI), expert graders, malodorous fabric swatch treated with test material
Text: Blocker materials suitable for use in consumer products of the present invention are chosen for their ability to decrease malodor, while not interfering with perception of a fragrance. Material selection is done by assigning two indices to a test sample material from two reference scales in order to rank odor strengths. The two reference scales are the Fragrance Fidelity Index (FFI) scale and the Blocker Index (BI) scale. The FFI ranks the ability of the test sample material to impart a perceivable odor which could cause interference when combined with another fragrance and the BI ranks the ability of the test sample material to reduce malodor perception. The two methods for assigning the indices to a test sample on the FFI and the BI reference scales are given below.
The first step in the method for assigning a BI to a test sample material on the BI reference scale is to create the BI reference swatches. […] Fabric swatches for this test are white knit polycotton (4 inch×4 inch) swatches from EMC ordered as PC 50/50. The supplier is instructed to strip the swatches first, stripping involves washing twice with a fragrance-free detergent and rinsing three times.
The BI scale contains one clean swatch with no malodor applied. […] These solutions are pipetted to the middle of the swatches. […] After drying for 30 minutes in a vented hood, the swatches are wrapped in aluminum foil to prevent odor contamination to the treated swatch. A clean untreated swatch is also included as the lowest anchor point of reference for malodor strength on the BI scale. The BI reference scale swatches should be used within 0.5 to 12 hours and discarded after 12 hours. The swatches are used as scale anchor points when graders evaluate a test sample(s) and are assigned a Blocker Index (BI) as show in Table 12.
The perfumer/expert grader is asked to rank order swatches according to a scale between 0 and 3.
The reference swatches represent the 0, 1, 2, and 3 BIs on the BI reference scale, Table 12. The expert grader should familiarizes him/herself with the strength of the odor on the BI reference swatches by sniffing each one starting at 0 (the lowest odor strength) and ending at 3 (the highest odor strength). This should be done prior to evaluating the swatch treated with the test material.
To evaluate the BI, the test material is applied to a malodorous swatch to determine how well the test material blocks the malodor. […] After drying the malodorous swatch a known concentration of test material solution, between 1 ppm and 100 ppm is pipetted onto the malodorous swatch. […] It is sometimes necessary to evaluate several levels of the test material between about 1 and about 100 ppm to determine the BI.
At least two perfumers/expert graders are used to assign the BI to the test sample. […] The test sample swatch is assigned a BI at or between numbers on the BI in table.

[1] = Conc 10 ppm test material on isovaleric acid swatch
[2] = Conc 50 ppm test material on isovaleric acid swatch

| Structure (SMILES) | BI [1] | BI [2] | BI (Conc 10 ppm test material on isovaleric acid swatch, listed as 1H-Indene-5-propanal, 2,3-dihydro-3 ,3-dimethyl-) | BI (Conc 50 ppm test material on isovaleric acid swatch, listed as 1H-Indene-5-propanal, 2,3-dihydro-3 ,3-dimethyl-) |
| --- | --- | --- | --- | --- |
| CCC(=O)OC1CC2C3C=CCC3C1C2(C)C (stereo not drawn) [8,8-dimethyl-3a,4,5,6,7,7a-hexahydro-1H-4,7-methanoinden-6-yl propionate] | 1.5 | 2.2 | – | – |
| CC1CCC2(C(C)C)CC(C)OC2C1 (stereo not drawn) [4,8-dimethyl-1-(methylethyl)-7-oxybiciclo[4.3.0]nonane] | 2.0 | 2.2 | – | – |
| CC1(C)CCc2ccc(CCC=O)cc21 [Material 261, 3-(3,3-dimethyl-2,3-dihydro-1H-inden-5-yl)propanal] | – | – | 1.5 | 2.7 |
